Values of other authors as cited in publication PMC6173406, “Design and evaluation of selective butyrylcholinesterase inhibitors based on Cinchona alkaloid scaffold” (PLoS ONE, 2018).

Target: T1, human BChE (Homo sapiens, UniProt P06276)
T1 construct: gift of Dr. F. Nachon (Département de Toxicologie, Armed Forces Biomedical Research Institute, France)
Details: cited from earlier work

T1 sequence (P06276 29-602): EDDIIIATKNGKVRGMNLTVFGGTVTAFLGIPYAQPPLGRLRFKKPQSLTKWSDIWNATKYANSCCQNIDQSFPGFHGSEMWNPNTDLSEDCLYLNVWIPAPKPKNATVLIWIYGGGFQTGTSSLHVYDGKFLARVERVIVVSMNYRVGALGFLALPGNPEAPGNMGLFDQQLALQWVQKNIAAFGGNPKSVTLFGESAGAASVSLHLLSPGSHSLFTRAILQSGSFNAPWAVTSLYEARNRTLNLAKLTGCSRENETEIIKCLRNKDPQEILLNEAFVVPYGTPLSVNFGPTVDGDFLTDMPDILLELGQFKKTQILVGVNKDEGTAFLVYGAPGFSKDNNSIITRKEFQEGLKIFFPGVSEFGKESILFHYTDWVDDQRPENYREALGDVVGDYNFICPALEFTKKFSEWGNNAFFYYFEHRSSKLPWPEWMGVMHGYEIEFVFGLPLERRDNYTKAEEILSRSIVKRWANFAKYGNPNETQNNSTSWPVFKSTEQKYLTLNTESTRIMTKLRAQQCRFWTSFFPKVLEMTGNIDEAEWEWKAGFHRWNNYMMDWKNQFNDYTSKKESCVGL

For `CCN(CC)C(C)CN1c2ccccc2Sc2ccccc21` (centres unmarked) [Ethopropazine], the “BChE Ks” value is given as 0.69 ± 0.14 mM and the Ki (read-out: BChE Ki) is given as 160 ± 30 nM.
